Test results taken from ChEMBL document CHEMBL1133244, “Solid-phase synthesis of an arylsulfone hydroxamate library” (Bioorg Med Chem Lett, 2000).
Active and inactive are the calls of the source. The calls are words filed in the database; no cut-off is given here.

Experiments:
Interstitial collagenase [1] = target: T1, Interstitial collagenase (Homo sapiens, UniProt P03956); test: Inhibitory activity against recombinant matrix metalloprotease-1
T1 sequence (P03956 whole entry): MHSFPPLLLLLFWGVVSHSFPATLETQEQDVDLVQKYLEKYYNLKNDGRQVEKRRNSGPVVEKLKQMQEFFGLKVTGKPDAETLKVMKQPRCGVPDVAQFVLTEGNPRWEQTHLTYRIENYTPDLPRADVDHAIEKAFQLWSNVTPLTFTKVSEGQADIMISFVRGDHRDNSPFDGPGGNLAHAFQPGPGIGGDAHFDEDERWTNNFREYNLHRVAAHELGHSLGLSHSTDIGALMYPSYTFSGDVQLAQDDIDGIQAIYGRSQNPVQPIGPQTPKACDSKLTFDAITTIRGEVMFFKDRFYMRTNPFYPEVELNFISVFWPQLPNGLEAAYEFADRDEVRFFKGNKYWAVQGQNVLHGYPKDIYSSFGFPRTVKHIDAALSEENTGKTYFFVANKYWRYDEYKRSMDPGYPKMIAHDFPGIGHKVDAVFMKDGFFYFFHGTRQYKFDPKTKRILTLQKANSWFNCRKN

[2] = target: Phosphodiesterase 4 (Cavia porcellus); test: Phosphodiesterase 4 inhibitory activity measured against guinea pig macrophage homogenate
Stromelysin-1 [3] = target: T2, Stromelysin-1 (Homo sapiens, UniProt P08254); test: Inhibitory activity against recombinant matrix metalloprotease-3
[4] = target: T3, 72 kDa type IV collagenase (Homo sapiens, UniProt P08253); test: Inhibitory activity against recombinant matrix metalloprotease-2
[5] = target: Disintegrin and metalloproteinase domain-containing protein 17 (Homo sapiens) (UniProt P78536); test: Inhibitory activity against TACE
Stromelysin-1 [6] = target: T2, Stromelysin-1; test: In vitro inhibition of human recombinant Matrix metalloprotease-3.
Interstitial collagenase [7] = target: T1, Interstitial collagenase; test: In vitro inhibition of human recombinant Matrix metalloprotease-1.
[8] = target: T3, 72 kDa type IV collagenase
Description: In vitro inhibition of human recombinant Matrix metalloprotease-2.

[9] = In vitro for the inhibition of TNF alpha release by human peripheral blood monocytes (PBMs); format: functional

Disintegrin and metalloproteinase domain-containing protein 17 (Homo sapiens), sequence (P78536 whole entry, the tested form may be a part): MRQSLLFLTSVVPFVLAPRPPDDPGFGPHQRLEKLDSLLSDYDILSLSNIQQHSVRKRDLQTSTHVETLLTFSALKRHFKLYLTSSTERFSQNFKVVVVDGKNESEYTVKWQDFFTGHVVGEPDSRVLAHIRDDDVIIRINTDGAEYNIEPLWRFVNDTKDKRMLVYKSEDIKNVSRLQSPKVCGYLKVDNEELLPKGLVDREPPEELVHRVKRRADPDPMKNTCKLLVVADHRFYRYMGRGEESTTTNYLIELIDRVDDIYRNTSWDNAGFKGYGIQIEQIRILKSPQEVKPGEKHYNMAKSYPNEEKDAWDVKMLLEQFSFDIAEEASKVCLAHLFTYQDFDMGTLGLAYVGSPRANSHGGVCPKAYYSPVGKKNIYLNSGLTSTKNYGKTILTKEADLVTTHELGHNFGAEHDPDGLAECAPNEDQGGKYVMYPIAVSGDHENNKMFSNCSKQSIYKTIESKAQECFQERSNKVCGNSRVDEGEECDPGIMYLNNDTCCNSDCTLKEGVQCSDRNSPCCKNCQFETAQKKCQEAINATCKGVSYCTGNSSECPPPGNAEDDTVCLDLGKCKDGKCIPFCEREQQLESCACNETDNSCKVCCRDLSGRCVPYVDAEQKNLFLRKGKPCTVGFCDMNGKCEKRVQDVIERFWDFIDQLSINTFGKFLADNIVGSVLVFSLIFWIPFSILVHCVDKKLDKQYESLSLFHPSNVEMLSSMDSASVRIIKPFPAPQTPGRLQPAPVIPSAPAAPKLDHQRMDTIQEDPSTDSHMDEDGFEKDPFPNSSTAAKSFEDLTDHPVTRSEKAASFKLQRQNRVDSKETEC
T2 sequence (P08254 whole entry): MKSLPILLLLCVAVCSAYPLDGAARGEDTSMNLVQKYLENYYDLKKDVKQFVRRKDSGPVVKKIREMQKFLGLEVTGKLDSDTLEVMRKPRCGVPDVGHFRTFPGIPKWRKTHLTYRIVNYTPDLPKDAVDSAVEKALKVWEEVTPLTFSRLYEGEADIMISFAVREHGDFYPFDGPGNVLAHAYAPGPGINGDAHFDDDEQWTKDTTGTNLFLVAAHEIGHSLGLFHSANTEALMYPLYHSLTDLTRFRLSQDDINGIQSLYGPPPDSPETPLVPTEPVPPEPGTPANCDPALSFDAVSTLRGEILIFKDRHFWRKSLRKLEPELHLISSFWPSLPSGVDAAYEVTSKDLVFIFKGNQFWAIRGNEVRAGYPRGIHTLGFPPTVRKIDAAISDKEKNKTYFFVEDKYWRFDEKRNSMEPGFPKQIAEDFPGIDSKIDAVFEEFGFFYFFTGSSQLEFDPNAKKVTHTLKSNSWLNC
T3 sequence (P08253 whole entry, the tested form may be a part): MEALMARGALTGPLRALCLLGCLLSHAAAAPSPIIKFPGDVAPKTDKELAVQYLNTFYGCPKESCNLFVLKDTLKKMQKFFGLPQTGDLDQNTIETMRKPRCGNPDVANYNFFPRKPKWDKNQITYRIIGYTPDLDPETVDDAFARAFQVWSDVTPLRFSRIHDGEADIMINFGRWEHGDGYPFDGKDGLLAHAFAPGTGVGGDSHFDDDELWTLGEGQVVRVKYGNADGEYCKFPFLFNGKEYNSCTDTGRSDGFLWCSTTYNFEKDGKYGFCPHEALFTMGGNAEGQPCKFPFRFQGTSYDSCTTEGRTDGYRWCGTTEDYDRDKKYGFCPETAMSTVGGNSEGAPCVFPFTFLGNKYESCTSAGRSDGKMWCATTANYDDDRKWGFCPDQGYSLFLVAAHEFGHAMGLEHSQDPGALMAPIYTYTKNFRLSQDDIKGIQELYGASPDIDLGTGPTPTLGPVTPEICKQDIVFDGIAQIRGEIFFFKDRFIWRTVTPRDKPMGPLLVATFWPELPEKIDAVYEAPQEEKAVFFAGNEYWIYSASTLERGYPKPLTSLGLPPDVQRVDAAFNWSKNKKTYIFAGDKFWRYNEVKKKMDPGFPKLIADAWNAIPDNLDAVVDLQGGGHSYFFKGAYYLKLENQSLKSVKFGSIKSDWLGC

Compound	IC50 (Interstitial collagenase [1])	IC50 [2]	IC50 (Stromelysin-1 [3])	IC50 [4]	Activity [5]	Ki (Stromelysin-1 [6])	Ki (Interstitial collagenase [7])	Ki [8]	IC50 [9]
COc1ccc(S(=O)(=O)C(CCC(=O)N2CCCc3ccccc32)CC(=O)NO)cc1OC1CCCC1 (configuration not stated)	> 10 µM	0.016 µM	> 10 µM	> 10 µM	–	–	–	–	–
COc1ccc(S(=O)(=O)C(CCCc2ccccc2)CC(=O)NO)cc1 (configuration not stated)	–	–	–	–	inactive	1.39 µM	2.58 µM	0.044 µM	5 µM
CCCC(CC(=O)NO)S(=O)(=O)c1ccc(OC)c(OC2CCCC2)c1 (configuration not stated)	> 10 µM	0.055 µM	> 10 µM	> 10 µM	–	–	–	–	–
COc1ccc(S(=O)(=O)C(CC(=O)NO)c2ccc(OCc3ccccc3)cc2)cc1OC1CCCC1 (configuration not stated)	> 10 µM	0.021 µM	> 10 µM	> 10 µM	–	–	–	–	–
CCCCCCC(CC(=O)NO)S(=O)(=O)c1ccc(OC)c(OC2CCCC2)c1 (configuration not stated)	> 10 µM	0.0095 µM	> 10 µM	> 10 µM	–	–	–	–	–
COc1ccc(Oc2cccc(C(CC(=O)NO)S(=O)(=O)c3ccc(OC)c(OC4CCCC4)c3)c2)cc1 (configuration not stated)	> 10 µM	0.049 µM	> 10 µM	> 10 µM	–	–	–	–	–
COc1ccc(S(=O)(=O)C(CC(=O)NO)C(C)c2ccccc2)cc1 (configuration not stated)	–	–	–	–	inactive	0.3 µM	1.71 µM	0.008 µM	> 10 µM
COc1ccc(S(=O)(=O)C(CC(=O)NO)CC(C)C)cc1OC1CCCC1 (configuration not stated)	> 10 µM	0.102 µM	> 10 µM	> 10 µM	–	–	–	–	–
COc1ccc(S(=O)(=O)C(COCc2ccccc2)CC(=O)NO)cc1 (configuration not stated)	–	–	–	–	inactive	1.43 µM	> 10 µM	0.038 µM	> 10 µM
COc1ccc(S(=O)(=O)C(CCCC(=O)N2CCCc3ccccc32)CC(=O)NO)cc1OC1CCCC1 (configuration not stated)	> 10 µM	0.036 µM	> 10 µM	> 10 µM	–	–	–	–	–
COc1ccc(S(=O)(=O)C(CCC(=O)N(C)c2ccccc2)CC(=O)NO)cc1OC1CCCC1 (configuration not stated)	> 10 µM	0.05 µM	> 10 µM	> 10 µM	–	–	–	–	–
COc1ccc(S(=O)(=O)C(CCc2ccc(Oc3ccccc3)cc2)CC(=O)NO)cc1OC1CCCC1 (configuration not stated)	> 10 µM	0.032 µM	> 10 µM	> 10 µM	–	–	–	–	–
COc1ccc(S(=O)(=O)C(CCC2CCCCC2)CC(=O)NO)cc1 (configuration not stated)	–	–	–	–	inactive	0.59 µM	0.4 µM	0.036 µM	> 10 µM
COc1ccc(S(=O)(=O)C(CC(=O)NO)CC(C)CC(C)(C)C)cc1 (configuration not stated)	–	–	–	–	inactive	0.676 µM	1.72 µM	0.027 µM	8 µM
COc1ccc(C(=O)Nc2c(Cl)cncc2Cl)cc1OC1CCCC1	–	–	–	–	–	–	–	–	0.005 µM
COc1ccc(S(=O)(=O)C(CCOC(=O)N(C)c2ccccc2)CC(=O)NO)cc1OC1CCCC1 (configuration not stated)	> 10 µM	0.14 µM	> 10 µM	> 10 µM	–	–	–	–	–
COc1ccc(S(=O)(=O)C(CCc2ccccc2)CC(=O)NO)cc1OC1CCCC1 (configuration not stated)	> 10 µM	0.031 µM	> 10 µM	> 10 µM	–	–	–	–	–
COc1ccc(S(=O)(=O)C(CCCC(=O)N(C)c2ccccc2)CC(=O)NO)cc1OC1CCCC1 (configuration not stated)	> 10 µM	0.118 µM	> 10 µM	> 10 µM	–	–	–	–	–
COc1ccc(S(=O)(=O)C(CCC(=O)N2CCCc3ccccc32)CC(=O)NO)cc1OC (configuration not stated)	> 10 µM	0.564 µM	> 10 µM	> 10 µM	–	–	–	–	–

Compound	IC50 (Interstitial collagenase [1])	IC50 [2]	IC50 (Stromelysin-1 [3])	IC50 [4]	Activity [5]	Ki (Stromelysin-1 [6])	Ki (Interstitial collagenase [7])	Ki [8]	IC50 [9]
COc1ccc(S(=O)(=O)C(CCCC(=O)N2CCCc3ccccc32)CC(=O)NO)cc1OC (configuration not stated)	> 10 µM	0.295 µM	> 10 µM	> 10 µM	–	–	–	–	–
COc1ccc(S(=O)(=O)C(CCc2ccccc2)CC(=O)NO)cc1 (configuration not stated)	–	–	–	–	inactive	0.35 µM	2.16 µM	0.043 µM	> 10 µM
COc1ccc(S(=O)(=O)C(CCc2ccc(OCc3ccccc3)cc2)CC(=O)NO)cc1OC (configuration not stated)	> 10 µM	0.064 µM	> 10 µM	> 10 µM	–	–	–	–	–
COc1ccc(S(=O)(=O)C(CCc2ccc(OCc3ccccc3)cc2)CC(=O)NO)cc1OC1CCCC1 (configuration not stated)	> 10 µM	0.063 µM	> 10 µM	> 10 µM	–	–	–	–	–
COc1ccc(S(=O)(=O)C(CCN(C)C(=O)c2ccccc2)CC(=O)NO)cc1OC1CCCC1 (configuration not stated)	> 10 µM	1.04 µM	> 10 µM	> 10 µM	–	–	–	–	–
COc1ccc(S(=O)(=O)C(CCCCc2ccccc2)CC(=O)NO)cc1 (configuration not stated)	–	–	–	–	inactive	–	–	–	> 10 µM
CCCC(CC(=O)NO)S(=O)(=O)c1ccc(OC)c(OC)c1 (configuration not stated)	> 10 µM	5.25 µM	> 10 µM	> 10 µM	–	–	–	–	–
COc1ccc(S(=O)(=O)C(CC(=O)NO)c2ccccc2)cc1OC (configuration not stated)	> 10 µM	0.58 µM	> 10 µM	> 10 µM	inactive	–	–	–	0.45 µM
COc1ccc(S(=O)(=O)C(CC(=O)NO)c2cccc(OCc3ccccc3)c2)cc1OC1CCCC1 (configuration not stated)	> 10 µM	0.089 µM	> 10 µM	> 10 µM	–	–	–	–	–
COc1ccc(S(=O)(=O)C(CC(=O)NO)c2ccccc2OCc2ccccc2)cc1OC1CCCC1 (configuration not stated)	> 10 µM	1.5 µM	> 10 µM	> 10 µM	–	–	–	–	–
COc1ccc(S(=O)(=O)C(CC(=O)NO)c2cccc(Oc3ccccc3)c2)cc1OC1CCCC1 (configuration not stated)	> 10 µM	0.26 µM	> 10 µM	> 10 µM	–	–	–	–	–
COc1ccc(S(=O)(=O)C(CC(=O)NO)c2ccccc2)cc1 (configuration not stated)	–	–	–	–	inactive	3.3 µM	> 10 µM	–	> 10 µM
COc1ccc(S(=O)(=O)C(CC(=O)NO)CC(C)C)cc1OC (configuration not stated)	> 10 µM	> 10 µM	> 10 µM	> 10 µM	–	–	–	–	–
COc1ccc(S(=O)(=O)C(CCN(C)C(=O)OCc2ccccc2)CC(=O)NO)cc1OC1CCCC1 (configuration not stated)	> 10 µM	0.46 µM	> 10 µM	> 10 µM	–	–	–	–	–
COc1ccc(S(=O)(=O)C(CCCN2C(=O)c3ccccc3C2=O)CC(=O)NO)cc1OC1CCCC1 (configuration not stated)	> 10 µM	0.032 µM	> 10 µM	> 10 µM	–	–	–	–	–
COc1ccc(S(=O)(=O)C(CCc2ccccc2)CC(=O)NO)cc1OC (configuration not stated)	> 10 µM	3.03 µM	> 10 µM	> 10 µM	–	–	–	–	–
COc1ccc(S(=O)(=O)C(CC(=O)NO)CN(C)C(=O)c2ccccc2)cc1OC1CCCC1 (configuration not stated)	> 10 µM	0.974 µM	> 10 µM	> 10 µM	–	–	–	–	–
COc1ccc(S(=O)(=O)C(CCCc2ccccc2)CC(=O)NO)cc1OC (configuration not stated)	> 10 µM	0.014 µM	> 10 µM	> 10 µM	inactive	–	–	–	0.009 µM
COc1ccc(S(=O)(=O)C(CCCCc2ccc3c(c2)OCO3)CC(=O)NO)cc1OC (configuration not stated)	> 10 µM	0.0064 µM	> 10 µM	> 10 µM	–	–	–	–	–
